Data from patent US20240208935A1, “COMPOSITIONS AND METHODS FOR TREATING NEURODEGENERATIVE DISEASES” (The Regents of the University of California, priority 2021, published 2024).

Assays:
Type in all cases: cell-based, mice
[1] = test system: γ-oscillations in the CA3 region hippocampal slices; test: In vitro KA-induced γ-oscillations in the CA3 region hippocampal slices; settings: 1 nM; 2 min epochs before and after application; 50 nM kainic acid
Source text: (§1) Mice aged 8-24 weeks of both sexes will be anesthetized with halothane and decapitated according to the UCLA Chancellor's Animal Research Committee protocol. Horizontal 350 μm hippocampal slices are cut on a Leica VT1000S Vibratome in ice-cold N-Methyl-D-Glucamine (NMDG)-based HEPES-buffered cutting solution, containing in mM: NMDG 135, D-glucose 10, MgCl2 4, CaCl20.5, KCl 1, KH2PO4 1.2, HEPES 26, kynurenic acid 3, pH 7.3-7.4, 295-297 mOsm/l, bubbled with 100% O2. […]
The oscillations can be recorded in the presence of 50 nM kainic acid in horizontally cut hippocampal slices just below the CA3 pyramidal cells layer, and the oscillations recorded in vitro correspond well to those recorded in vivo during spatial reference memory. […] The squared magnitude of the FFT of the oscillations will be analyzed between 30-120 Hz. The area under the FFT curve will be calculated between these two frequencies and compared during a 2 min epoch just before the perfusion of the drug to the last 2 min of a 10 min drug perfusion. The ratios of the areas in-drug/pre-drug will be calculated as in FIG. 1B.
γ-oscillations were recorded in the presence of 50 nM kainic acid in horizontally cut hippocampal slices just below the CA3 pyramidal cells layer. These oscillations recorded in vitro correspond well to those recorded in vivo during spatial reference memory. […]

[2] = test system: dentate gyrus granule cells (α4β2/3δ); test: Tonic inhibition in dentate gyrus granule cells (selectivity); settings: 1 nM
Source text: In addition to the α1β2δ GABAARs of PV+INs, the following native δ-GABAARs subunit combinations are present in the brain: (α6β2δ on cerebellar granule cells; α4β2/3δ are most prominent in the forebrain where they are found among other neurons on dentate gyrus granule cells. To establish selectivity of the compounds for the α1β2δ GABAARs of PV+INs, the compounds effects in cerebellar granule cells (α6β2δ) and dentate gyrus granule cells (α4β2/3δ) will be compared.
Selectivity measurement will be performed by dividing the blocking fractions of the compounds for tonic inhibition obtained for the PV+IN above by the values determined for cerebellar and dentate gyrus granule cells.

[3] = target: T1, fast synaptic α1β2γ2 receptors (Mus musculus, UniProt P22723+P62812+P63137); test: Phasic current recordings in fluorescently labeled PV+INs; settings: 1 nM, 1-(current in drug/current in control), read-out: fraction inhibited of the phasic current
T1 construct: from tissue; host or cells: mouse cortical and hippocampal brain slices; tdTomato-labelled PV+ interneurons
T1 sequence (P62812 28-455): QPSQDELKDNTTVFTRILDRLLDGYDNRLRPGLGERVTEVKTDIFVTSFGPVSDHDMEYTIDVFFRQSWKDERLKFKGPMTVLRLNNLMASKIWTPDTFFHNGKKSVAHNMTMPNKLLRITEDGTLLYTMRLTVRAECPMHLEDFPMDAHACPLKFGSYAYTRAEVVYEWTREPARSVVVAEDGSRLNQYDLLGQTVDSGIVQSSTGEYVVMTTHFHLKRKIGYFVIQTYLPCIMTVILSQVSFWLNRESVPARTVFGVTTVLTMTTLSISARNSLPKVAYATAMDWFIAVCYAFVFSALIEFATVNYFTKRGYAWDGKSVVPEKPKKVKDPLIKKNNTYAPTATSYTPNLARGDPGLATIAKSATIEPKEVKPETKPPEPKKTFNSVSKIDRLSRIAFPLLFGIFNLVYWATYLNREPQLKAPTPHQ
T1 sequence (P63137 25-512 limits assumed): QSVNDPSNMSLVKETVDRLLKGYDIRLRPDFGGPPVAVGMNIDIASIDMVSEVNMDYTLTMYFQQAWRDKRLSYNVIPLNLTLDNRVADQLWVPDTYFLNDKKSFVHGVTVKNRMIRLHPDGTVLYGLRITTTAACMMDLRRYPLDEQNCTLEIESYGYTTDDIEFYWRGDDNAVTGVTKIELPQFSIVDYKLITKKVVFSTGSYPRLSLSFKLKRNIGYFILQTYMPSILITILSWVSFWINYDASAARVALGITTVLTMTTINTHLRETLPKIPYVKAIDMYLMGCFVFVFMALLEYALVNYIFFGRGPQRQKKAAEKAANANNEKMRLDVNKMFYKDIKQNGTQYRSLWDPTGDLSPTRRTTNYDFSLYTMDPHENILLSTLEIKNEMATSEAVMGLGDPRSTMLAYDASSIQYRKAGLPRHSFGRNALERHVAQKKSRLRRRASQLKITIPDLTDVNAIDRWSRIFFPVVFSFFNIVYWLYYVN
T1 sequence (P22723 39-474): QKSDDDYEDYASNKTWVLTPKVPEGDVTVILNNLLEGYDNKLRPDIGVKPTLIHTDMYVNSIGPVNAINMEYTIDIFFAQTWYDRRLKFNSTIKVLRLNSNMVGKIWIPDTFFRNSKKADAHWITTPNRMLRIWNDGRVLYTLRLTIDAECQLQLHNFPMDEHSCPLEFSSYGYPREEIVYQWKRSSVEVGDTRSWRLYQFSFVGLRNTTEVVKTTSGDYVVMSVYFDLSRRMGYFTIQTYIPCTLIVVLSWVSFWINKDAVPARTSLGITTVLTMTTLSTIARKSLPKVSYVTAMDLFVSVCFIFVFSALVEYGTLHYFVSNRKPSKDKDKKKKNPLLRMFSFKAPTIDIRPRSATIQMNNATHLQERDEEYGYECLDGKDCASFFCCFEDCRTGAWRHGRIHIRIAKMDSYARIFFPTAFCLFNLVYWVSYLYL
Source text: as §1
(§2) For these experiments mice expressing hChR2(H134R)-tdTomato specifically in PV+Ins will be used. […] Cells will be voltage-clamped at 0 mV where tonic and phasic GABAAR mediated currents can be recorded without interference from excitatory events. The tonic and phasic components of the currents will be determined as published using Gaussian fits to the all-points histograms of 30 s epochs of recordings during the pre-drug period, 5-10 min after the washin of the drug to be tested, and 1-2 min after washing-in 40 μM of the pan-GABAAR blocker gabazine (SR-95531). The magnitude of the tonic and phasic currents willbe determined by subtracting the currents in the presence of gabazine. […]

α1β2δ GABAARs of PV+INs = target: T2, α1β2δ GABAARs of PV+INs (Mus musculus, UniProt P22933+P62812+P63137); test: Tonic current recordings in fluorescently labeled PV+INs; settings: 1 nM, 1-(current in drug/current in control), read-out: fraction inhibited of the tonic current
T2 construct: the native α1β2δ receptors of PV+INs; from tissue; host or cells: mouse cortical and hippocampal brain slices; tdTomato-labelled PV+ interneurons
T2 sequence (P62812 28-455): as the sequence (P62812 28-455) above
T2 sequence (P63137 26-512): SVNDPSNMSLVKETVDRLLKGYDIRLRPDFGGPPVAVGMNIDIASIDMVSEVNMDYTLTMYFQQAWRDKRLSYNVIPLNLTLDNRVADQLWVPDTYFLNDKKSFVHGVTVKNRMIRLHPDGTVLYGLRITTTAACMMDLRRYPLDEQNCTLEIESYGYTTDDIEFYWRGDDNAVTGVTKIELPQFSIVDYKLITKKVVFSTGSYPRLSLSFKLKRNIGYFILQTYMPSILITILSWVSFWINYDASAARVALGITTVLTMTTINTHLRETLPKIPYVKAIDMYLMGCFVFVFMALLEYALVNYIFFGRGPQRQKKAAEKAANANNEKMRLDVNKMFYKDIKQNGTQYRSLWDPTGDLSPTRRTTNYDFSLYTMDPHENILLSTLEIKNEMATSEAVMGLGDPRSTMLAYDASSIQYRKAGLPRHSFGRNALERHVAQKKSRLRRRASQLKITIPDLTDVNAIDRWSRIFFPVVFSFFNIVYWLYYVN
T2 sequence (P22933 25-449): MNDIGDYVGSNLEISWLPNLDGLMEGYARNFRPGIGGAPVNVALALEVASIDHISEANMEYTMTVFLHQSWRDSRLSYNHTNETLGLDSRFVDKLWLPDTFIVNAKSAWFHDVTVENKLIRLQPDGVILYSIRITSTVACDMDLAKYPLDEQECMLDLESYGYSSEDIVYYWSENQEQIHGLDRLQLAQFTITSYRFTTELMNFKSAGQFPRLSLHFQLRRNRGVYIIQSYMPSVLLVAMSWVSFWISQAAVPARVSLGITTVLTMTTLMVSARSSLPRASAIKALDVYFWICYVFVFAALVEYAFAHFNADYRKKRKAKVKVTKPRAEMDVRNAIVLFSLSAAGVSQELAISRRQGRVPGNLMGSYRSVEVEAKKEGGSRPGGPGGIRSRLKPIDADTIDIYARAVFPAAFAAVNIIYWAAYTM
Source text: as §1, §2

inhibition at 0.001 µM [3]: 1.1% | inhibition at 0.001 µM (α1β2δ GABAARs of PV+INs): 79.2%
Compound: On1cc(C2CCNCC2)c(Cc2ccc3ccccc3c2)n1 [DDL-920, 3-(naphthalen-2-ylmethyl)-4-(piperidin-4-yl)-1H-pyrazol-1-ol]
ratio of the drug/control areas under the FFT curve between 30-120 Hz [1]: 4.26 | blocking fraction for tonic inhibition in dentate granule cells [2]: 0.376 | selectivity, PV+IN vs dentate granule cell blocking fraction of tonic inhibition ([2]; PV+IN/dentate granule cell): 2.11
